The source of these data is PubChem BioAssay (NCI).

Some test systems named below: A498 renal; A549 NSCLC; HCC-2998 colon; HT29 colon; MCF7 breast; OVCAR-8 ovarian; RPMI-8226 leukemia; SF-539 CNS; SK-MEL-5 melanoma; T-47D breast.
Holding throughout (experiment): NCI tumour cell line growth inhibition, 48 h

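48-hour exposure; five concentrations; linearly interpolated endpoints. GI50 marks 50% less growth. TGI: concentration producing complete growth inhibition.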

Turning to `Oc1ccc(Cl)cc1/C=N\NC(=S)N/N=C/c1cc(Cl)ccc1O`, the GI50 with A498 renal is 2.36 µM; in the experiment with A549 NSCLC, 3.75 µM; in the experiment on HCC-2998 colon, 3.55 µM; in the experiment on HT29 colon, 5.13 µM; in the experiment on MCF7 breast, 3.82 µM; with OVCAR-8 ovarian, 1.92 µM. Also, the GI50 with RPMI-8226 leukemia was 3.45 µM; in the experiment on SF-539 CNS, 2.8 µM; in the experiment on SK-MEL-5 melanoma it was 1.34 µM; with T-47D breast it was 2.73 µM. The TGI in the experiment on A498 renal is 11.5 µM; in the experiment on A549 NSCLC, more than 100 µM; in the experiment with HCC-2998 colon it was 86.8 µM; in the experiment with HT29 colon it was 54.4 µM; with MCF7 breast, more than 100 µM; in the experiment on OVCAR-8 ovarian, 17.7 µM. Moreover, the TGI with RPMI-8226 leukemia came to 34.9 µM; in the experiment on SF-539 CNS, 90.8 µM; with SK-MEL-5 melanoma, 3.88 µM; with T-47D breast it was 73.4 µM.
With `O=C(Nc1cccc(C(F)(F)F)c1)c1cc2ccccc2cc1O`, the GI50 was 0.919 µM with A498 renal; 2.7 µM in the experiment on A549 NSCLC; 3.35 µM in the experiment on HCC-2998 colon; 3.33 µM in the experiment with HT29 colon; 0.708 µM in the experiment with MCF7 breast; 3.7 µM in the experiment with OVCAR-8 ovarian. For the same molecule, the GI50 is 0.354 µM with RPMI-8226 leukemia, 2.25 µM with SF-539 CNS, 0.987 µM in the experiment on SK-MEL-5 melanoma and 1.68 µM in the experiment on T-47D breast. Also, the TGI in the experiment on A498 renal was 7.4 µM; with A549 NSCLC, more than 61.6 µM; in the experiment on HCC-2998 colon it was 28.8 µM; with HT29 colon, more than 55.5 µM; in the experiment with MCF7 breast, more than 43.6 µM; in the experiment with OVCAR-8 ovarian it was more than 31.3 µM. Moreover, the TGI in the experiment on RPMI-8226 leukemia was 2.15 µM; in the experiment with SF-539 CNS, 70.2 µM; in the experiment with SK-MEL-5 melanoma, 3.5 µM; in the experiment on T-47D breast, 58 µM.
As to `CC(C(N)=O)N(C)C(=O)c1cnc2ccccc2c1` (stereo not given), the TGI with A498 renal, in the experiment with A549 NSCLC, in the experiment on HCC-2998 colon, with HT29 colon, in the experiment with MCF7 breast and with OVCAR-8 ovarian was more than 100 µM in each case. The TGI with RPMI-8226 leukemia, in the experiment on SF-539 CNS, in the experiment on SK-MEL-5 melanoma and with T-47D breast was more than 100 µM throughout.
Consider `Cc1ccc(-c2n[nH]c(=O)c3noc(-c4ccc(C)cc4)c23)cc1`, for which the GI50 in the experiment on A498 renal was 1.27 µM; with A549 NSCLC it was 0.74 µM; in the experiment with HCC-2998 colon, 3.89 µM; in the experiment on HT29 colon, 0.4 µM; in the experiment on MCF7 breast, 0.565 µM; in the experiment on OVCAR-8 ovarian it was 1.82 µM. Besides, the GI50 is 0.616 µM with RPMI-8226 leukemia, 0.787 µM in the experiment on SF-539 CNS, 0.97 µM with SK-MEL-5 melanoma and 2.41 µM with T-47D breast. In addition, the TGI is 6.71 µM in the experiment with A498 renal; more than 100 µM in the experiment on A549 NSCLC; more than 100 µM in the experiment on HCC-2998 colon; 15.8 µM in the experiment on HT29 colon; more than 100 µM in the experiment with MCF7 breast; 27.7 µM in the experiment on OVCAR-8 ovarian. Also, the TGI with RPMI-8226 leukemia is more than 100 µM; in the experiment with SF-539 CNS, 4.14 µM; in the experiment on SK-MEL-5 melanoma, more than 100 µM; in the experiment on T-47D breast, more than 100 µM.
Take `N#C/C(=C\c1ccc2[nH]ccc2c1)C(=O)c1ccc(O)c(O)c1`: the TGI in the experiment on A498 renal, in the experiment on A549 NSCLC, in the experiment with HCC-2998 colon, in the experiment on HT29 colon, in the experiment with MCF7 breast and in the experiment with OVCAR-8 ovarian was more than 100 µM in each case. For the same molecule, the TGI in the experiment with RPMI-8226 leukemia, in the experiment on SF-539 CNS, in the experiment with SK-MEL-5 melanoma and with T-47D breast was more than 100 µM in each case.
As to `O=C(/C=C/c1cccc2ccccc12)Nc1ncc(Cc2ccccc2)s1`, the GI50 with A498 renal was 0.189 µM; with A549 NSCLC, 1.32 µM; in the experiment on HCC-2998 colon, 2.57 µM; in the experiment with HT29 colon, 1 µM; in the experiment with MCF7 breast, 0.434 µM; in the experiment on OVCAR-8 ovarian, 1.55 µM. For the same molecule, the GI50 in the experiment with RPMI-8226 leukemia is 1.09 µM; with SF-539 CNS, 0.716 µM; in the experiment with SK-MEL-5 melanoma, 1.8 µM; in the experiment on T-47D breast, 0.894 µM. The TGI was 0.72 µM with A498 renal; more than 66.3 µM in the experiment with A549 NSCLC; more than 100 µM in the experiment on HCC-2998 colon; more than 47 µM with HT29 colon; more than 100 µM with MCF7 breast; more than 100 µM in the experiment on OVCAR-8 ovarian. Moreover, the TGI in the experiment on RPMI-8226 leukemia is more than 100 µM; in the experiment with SF-539 CNS, 2.92 µM; in the experiment with SK-MEL-5 melanoma it was more than 100 µM; with T-47D breast, more than 100 µM.
In the case of `COc1ccc(-c2nc(C(=O)c3ccccc3)n(CC(=O)c3ccc(Cl)cc3)c2-c2ccc(OC)cc2)cc1`, the GI50 in the experiment with A498 renal, in the experiment with A549 NSCLC, in the experiment on HCC-2998 colon, in the experiment on HT29 colon, in the experiment with MCF7 breast and with OVCAR-8 ovarian was more than 100 µM each time. Further, the GI50 in the experiment on RPMI-8226 leukemia, with SF-539 CNS, with SK-MEL-5 melanoma and in the experiment on T-47D breast was more than 100 µM throughout. In addition, the TGI in the experiment on A498 renal, with A549 NSCLC, with HCC-2998 colon, with HT29 colon, in the experiment with MCF7 breast and in the experiment with OVCAR-8 ovarian was more than 100 µM each time. Moreover, the TGI in the experiment on RPMI-8226 leukemia, in the experiment with SF-539 CNS, in the experiment with SK-MEL-5 melanoma and in the experiment on T-47D breast was more than 100 µM each time.
As to `COc1cccc(NC2=C(Cl)C(=O)N(Cc3ccc(Cl)cc3)C2=O)c1`, the GI50 in the experiment with A498 renal is 11.8 µM; with A549 NSCLC, 2.67 µM; in the experiment on HCC-2998 colon, 2.64 µM; with HT29 colon, 2.72 µM; in the experiment with MCF7 breast it was 2.09 µM; with OVCAR-8 ovarian it was 1.82 µM. In addition, the GI50 is 0.985 µM in the experiment on RPMI-8226 leukemia, 1.73 µM in the experiment with SF-539 CNS, 1.21 µM with SK-MEL-5 melanoma and 10.9 µM with T-47D breast. Further, the TGI in the experiment on A498 renal is 27.3 µM; with A549 NSCLC, 26.8 µM; in the experiment on HCC-2998 colon it was 12.7 µM; in the experiment on HT29 colon it was more than 100 µM; in the experiment with MCF7 breast, more than 38.8 µM; with OVCAR-8 ovarian, more than 43.1 µM. The TGI with RPMI-8226 leukemia was more than 20.3 µM; in the experiment with SF-539 CNS, 5.7 µM; in the experiment with SK-MEL-5 melanoma it was 6.09 µM; in the experiment on T-47D breast, more than 100 µM.
